Test results: article PMC8916850, “Preparation of Spice Extracts: Evaluation of Their Phytochemical, Antioxidant, Antityrosinase, and Anti-α-Glucosidase Properties Exploring Their Mechanism of Enzyme Inhibition with Antibrowning and Antidiabetic Studies In Vivo” (BioMed Research International, 2022)

Target: T1, Mushroom tyrosinase
T1 construct: gene PPO1
Test: dopachrome formation, absorbance at […] nm
Assay type: biochemical
Settings: L-DOPA 0.85 mM, phosphate buffer 20 mM pH 6.8, 37 °C; 10 min preincubation; methods name kojic acid as the standard, table and text name hydroquinone

MeOH: 131.34 ± 9.82 µg/mL
SMILES: Oc1ccc(O)cc1 [hydroquinone]
